According to ChEMBL document CHEMBL4184180, “Antitussive and expectorant activities of licorice and its major compounds” (2018):
Activity calls are given as the source filed them. The calls are words filed in the database; no cut-off is given here.

Key:
Mus musculus [1] = test: Antitussive activity in ammonia liquor-induced cough ICR mouse model assessed as reduction in cough frequency at 50 mg/kg, po treated with ammonia 1 hr before and 1 hr after test compound dosing measured for 3 mins relative to control; format: functional
Mus musculus [2] = test: Antitussive activity in ammonia liquor-induced cough ICR mouse model assessed as reduction in cough frequency at 50 mg/kg, po treated with ammonia 1 hr before and 2.5 hrs after test compound dosing measured for 3 mins relative to control; format: functional
Mus musculus [3] = test: Antitussive activity in ammonia liquor-induced cough ICR mouse model assessed as reduction in cough frequency at 50 mg/kg, po treated with ammonia 1 hr before and 5 hrs after test compound dosing measured for 3 mins relative to control; format: functional
Mus musculus [4] = test: Antitussive activity in ammonia liquor-induced cough ICR mouse model assessed as reduction in cough frequency at 20 mg/kg, po treated with ammonia 1 hr before and 1 hr after test compound dosing measured for 3 mins; format: functional, organism-based
Mus musculus [5] = test: Antitussive activity in ammonia liquor-induced cough ICR mouse model assessed as reduction in cough frequency at 20 mg/kg, po treated with ammonia 1 hr before and 2.5 hrs after test compound dosing measured for 3 mins; format: functional, organism-based
Mus musculus [6] = test: Antitussive activity in ammonia liquor-induced cough ICR mouse model assessed as reduction in cough frequency at 20 mg/kg, po treated with ammonia 1 hr before and 5 hrs after test compound dosing measured for 3 mins; format: functional, organism-based
Mus musculus [7] = test: Expectorant activity in ICR mouse assessed as increase in phenol red secretion in trachea at 50 mg/kg, po for 3 days followed by phenol red treatment at 30 mins post last dose measured after 30 mins by UV-Vis spectrophotometric assay relative to control; format: functional
Mus musculus [8] = test: Expectorant activity in ICR mouse assessed as phenol red secretion in trachea at 20 to 50 mg/kg, po for 3 days followed by phenol red treatment at 30 mins post last dose measured after 30 mins by UV-Vis spectrophotometric assay relative to control; format: functional
Mus musculus [9] = test: Antitussive activity in ammonia liquor-induced cough ICR mouse model assessed as reduction in cough frequency at 50 mg/kg, po treated with ammonia 1 hr before and 1 to 5 hrs after test compound dosing measured for 3 mins relative to control; format: functional; parameters: scale not given: the % may be the effect or the level left
Mus musculus [10] = test: Antitussive activity in ammonia liquor-induced cough ICR mouse model assessed as reduction in cough frequency at 50 mg/kg, po treated with ammonia 1 hr before and 1 hr after test compound dosing measured for 3 mins in presence of 5-HT receptor antagonist methysergide relative to control; format: functional
Mus musculus [11] = test: Antitussive activity in ammonia liquor-induced cough ICR mouse model assessed as reduction in cough frequency at 50 mg/kg, po treated with ammonia 1 hr before and 1 hr after test compound dosing measured for 3 mins in presence of ATP-sensitive K+ channel blocker glibenclamide relative to control; format: functional
Mus musculus [12] = test: Antitussive activity in ammonia liquor-induced cough ICR mouse model assessed as reduction in cough frequency at 50 mg/kg, po treated with ammonia 1 hr before and 1 to 5 hrs after test compound dosing measured for 3 mins in presence of opioid receptor antagonist naloxone relative to control; format: functional, organism-based
Mus musculus [13] = test: Antitussive activity in ammonia liquor-induced cough ICR mouse model assessed as increase in latent period at 50 mg/kg, po treated with ammonia 1 hr before and 1 to 5 hrs after test compound dosing measured for 3 mins relative to control; format: functional
Mus musculus [14] = test: Antitussive activity in ammonia liquor-induced cough ICR mouse model assessed as reduction in cough frequency at 20 mg/kg, po treated with ammonia 1 hr before and 1 to 5 hrs after test compound dosing measured for 3 mins relative to control; format: functional, organism-based
Mus musculus [15] = test: Antitussive activity in ammonia liquor-induced cough ICR mouse model assessed as increase in latent period at 20 mg/kg, po treated with ammonia 1 hr before and 1 to 5 hrs after test compound dosing measured at 1 hr post dose; format: functional, organism-based
Mus musculus [16] = test: Antitussive activity in ammonia liquor-induced cough ICR mouse model assessed as increase in latent period at 50 mg/kg, po treated with ammonia 1 hr before and 1 hr after test compound dosing measured at 1 hr post dose; format: functional, organism-based

SMILES	Activity (Mus musculus [1])	Activity (Mus musculus [2])	Activity (Mus musculus [3])	Activity (Mus musculus [4])	Activity (Mus musculus [5])	Activity (Mus musculus [6])	further results
O=C(/C=C/c1ccc(O[C@@H]2O[C@H](CO)[C@@H](O)[C@H](O)[C@H]2O)cc1)c1ccc(O)cc1O	inactive	inactive	inactive	inactive	inactive	inactive	
COc1ccccc1OCC(O)CO (stereo not given) [GUAIFENESIN]							fold change (FC) (Mus musculus [7]): 3; Activity (Mus musculus [8]): 299.5%
CC1(C)C=Cc2c(ccc3c2OC[C@@H](c2ccc(O)cc2O)C3)O1		Active					
CC(C)=CCc1cc2c(=O)cc(-c3ccc(O)cc3)oc2cc1O	inactive	inactive	inactive	inactive	inactive	inactive	
CC1(C)[C@@H](O)CC[C@]2(C)[C@H]3C(=O)C=C4[C@@H]5C[C@@](C)(C(=O)O)CC[C@]5(C)CC[C@@]4(C)[C@]3(C)CC[C@@H]12 [ENOXOLONE]							Activity (Mus musculus [9]): 27 - 40%; Activity (Mus musculus [7]): inactive
C=CC(C)(C)c1cc(/C=C/C(=O)c2ccc(O)cc2)c(OC)cc1O	inactive	inactive	inactive	inactive	inactive	inactive	
COc1cc(O)ccc1/C=C/C(=O)c1ccc(O)cc1	inactive	inactive	inactive	inactive	inactive	inactive	
CC1(C)[C@@H](O[C@H]2O[C@H](C(=O)O)[C@@H](O)[C@H](O)[C@H]2O[C@@H]2O[C@H](C(=O)O)[C@@H](O)[C@H](O)[C@H]2O)CC[C@]2(C)[C@H]3C(=O)C=C4[C@@H]5C[C@@](C)(C(=O)O)CC[C@]5(C)CC[C@@]4(C)[C@]3(C)CC[C@@H]12	inactive	inactive	inactive	inactive	inactive	inactive	Activity (Mus musculus [7]): inactive
CC(C)=CCc1cc(-c2coc3cc(O)c(CC=C(C)C)c(O)c3c2=O)cc(O)c1O	inactive	inactive	inactive	inactive	inactive	inactive	
O=C1C[C@@H](c2ccc(O[C@@H]3O[C@H](CO)[C@@H](O)[C@H](O)[C@H]3O)cc2)Oc2cc(O)ccc21 [LIQUIRITIN]		Active	Active				Activity (Mus musculus [9]): 30 - 78%; Activity (Mus musculus [10]): inactive; Activity (Mus musculus [11]): inactive; Activity (Mus musculus [12]): Active; fold change (FC) (Mus musculus [7]): 2.5; Activity (Mus musculus [8]): 249.8%
O=C1C[C@@H](c2ccc(O)cc2)Oc2cc(O)ccc21 [LIQUIRTIGENIN]			Active				Activity (Mus musculus [9]): 30 - 78%; Activity (Mus musculus [10]): inactive; Activity (Mus musculus [11]): inactive; Activity (Mus musculus [12]): Active; fold change (FC) (Mus musculus [7]): 1.57; Activity (Mus musculus [8]): 156.7%
O=C(/C=C/c1ccc(O[C@H]2O[C@@H](CO)[C@H](O)[C@@H](O)[C@@H]2O[C@@H]2OC[C@](O)(CO)[C@H]2O)cc1)c1ccc(O)cc1O	Active	inactive	inactive	Active	inactive	inactive	
COc1c(CC=C(C)C)c(O)cc2oc(=O)c(-c3ccc(O)cc3O)cc12	inactive	inactive	inactive	inactive	inactive	inactive	
O=C(/C=C/c1ccc(O)cc1)c1ccc(O)cc1O	inactive	Active	Active	inactive	Active	Active	Activity (Mus musculus [7]): inactive
O=C1C[C@@H](c2ccc(O[C@@H]3O[C@H](CO)[C@@H](O)[C@H](O)[C@H]3O[C@@H]3OC[C@](O)(CO)[C@H]3O)cc2)Oc2cc(O)ccc21	79.1%						Activity (Mus musculus [9]): 30 - 78%; fold change (FC) (Mus musculus [13]): 1.3 - 1.9; Activity (Mus musculus [14]): Active; Activity (Mus musculus [15]): inactive; Activity (Mus musculus [10]): 30%; Activity (Mus musculus [11]): 28.2%; Activity (Mus musculus [12]): Active; fold change (FC) (Mus musculus [7]): 1.97; Activity (Mus musculus [8]): 196.6%
CCN(CC)CCOCCOC(=O)C1(c2ccccc2)CCCC1.O=C(O)CC(O)(CC(=O)O)C(=O)O [CARBETAPENTANE CITRATE]	58%	53%	50%				Activity (Mus musculus [16]): Active
